The text below walks through data of ChEMBL document CHEMBL4433214, “Investigation around the Oxadiazole Core in the Discovery of a New Chemotype of Potent and Selective FXR Antagonists” (ACS Med Chem Lett, 2019).

Converted amounts (≈) assume the structure as drawn. The source made the active and inactive calls. The rule behind the calls is not given here.

Series [1] addresses T1, Bile acid receptor (Homo sapiens) (UniProt Q96RI1).
T1 sequence (whole entry): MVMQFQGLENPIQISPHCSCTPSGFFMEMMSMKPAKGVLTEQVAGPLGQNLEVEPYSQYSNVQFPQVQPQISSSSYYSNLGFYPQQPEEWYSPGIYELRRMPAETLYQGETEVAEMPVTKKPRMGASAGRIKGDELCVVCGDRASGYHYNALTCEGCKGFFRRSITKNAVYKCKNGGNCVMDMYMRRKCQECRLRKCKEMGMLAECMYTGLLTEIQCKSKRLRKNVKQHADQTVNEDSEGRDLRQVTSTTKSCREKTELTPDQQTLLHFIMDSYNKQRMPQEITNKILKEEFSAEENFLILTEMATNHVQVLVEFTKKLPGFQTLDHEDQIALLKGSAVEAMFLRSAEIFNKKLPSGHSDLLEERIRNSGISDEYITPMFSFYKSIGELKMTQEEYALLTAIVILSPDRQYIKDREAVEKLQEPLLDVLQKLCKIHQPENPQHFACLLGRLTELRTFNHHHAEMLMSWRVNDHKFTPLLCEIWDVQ
The series is described as follows: Antagonist activity at human FXR in HepG2 cells assessed as reversal of CDCA-induced reduction in CYP7A1 mRNA expression level at 0.1 to 1 uM dosed after 24 hrs starvation followed by CDCA addition and measured after 18 hrs by RT-PCR analysis. It counts as […].

The target of series [2] is T2, Oxysterols receptor LXR-alpha (Homo sapiens) (UniProt Q13133).
T2 sequence (whole entry): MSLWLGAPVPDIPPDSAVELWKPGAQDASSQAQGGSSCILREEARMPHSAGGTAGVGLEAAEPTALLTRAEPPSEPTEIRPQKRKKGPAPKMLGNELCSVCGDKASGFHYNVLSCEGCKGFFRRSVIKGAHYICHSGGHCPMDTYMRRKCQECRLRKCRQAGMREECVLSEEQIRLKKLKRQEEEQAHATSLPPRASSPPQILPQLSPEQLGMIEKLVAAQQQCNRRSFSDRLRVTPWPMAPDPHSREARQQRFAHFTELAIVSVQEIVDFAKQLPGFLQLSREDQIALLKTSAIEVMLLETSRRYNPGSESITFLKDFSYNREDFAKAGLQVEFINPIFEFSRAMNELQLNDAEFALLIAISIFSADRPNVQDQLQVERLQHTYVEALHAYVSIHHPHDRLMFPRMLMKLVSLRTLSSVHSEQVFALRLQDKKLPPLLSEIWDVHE
The series is described as follows: Antagonist activity at human LXRalpha transfected in HepG2 at 5 uM in presence of LXRalpha agonist GW3965 by luciferase reporter assay. It is filed as cell-based. (Reporter assays use an easily measured gene product as a stand-in for the process of interest.)

The nature of series [3]: Metabolic stability in rat liver microsomes assessed as parent compound remaining at 1 uM measured after 40 mins by LC-MS/MS analysis. (In general: Liver microsomes are a subcellular fraction often used to study metabolism.)
A short description of series [4]: Lipophilicity, log D of the compound by LC-MS/MS analysis. It counts as physicochemical. Conditions: octanol/water.
In series [5] the target is T3, Nuclear receptor subfamily 1 group I member 2 (Homo sapiens, UniProt O75469).
T3 sequence (O75469 whole entry): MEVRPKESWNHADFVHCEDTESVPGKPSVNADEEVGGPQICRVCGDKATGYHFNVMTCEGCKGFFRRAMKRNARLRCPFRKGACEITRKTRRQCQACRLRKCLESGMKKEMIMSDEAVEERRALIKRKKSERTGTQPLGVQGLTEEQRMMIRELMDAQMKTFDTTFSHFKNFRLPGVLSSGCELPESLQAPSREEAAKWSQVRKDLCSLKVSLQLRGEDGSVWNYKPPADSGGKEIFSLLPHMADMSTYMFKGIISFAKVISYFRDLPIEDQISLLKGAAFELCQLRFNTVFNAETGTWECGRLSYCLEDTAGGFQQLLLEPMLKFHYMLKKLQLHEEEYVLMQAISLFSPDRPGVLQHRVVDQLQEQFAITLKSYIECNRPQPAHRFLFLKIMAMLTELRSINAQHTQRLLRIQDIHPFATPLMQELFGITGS
Nature of the series: Agonist activity at human PXR transfected in HepG2 at 10 uM by luciferase reporter assay. It counts as cell-based. Conditions: hepg2, 10 µM.

A short description of series [6]: Half life in rat liver microsomes at 1 uM incubated for 2 hrs by LC-MS/MS analysis.
The target in series [7] is T1, Bile acid receptor (Homo sapiens). Nature of the series: Antagonist activity at human FXR assessed as reduction in CDCA-induced FXR-SRC-1 recruitment at 500 to 1000 nM incubated for 30 mins by alpha screen assay. (Alpha assays give light when donor and acceptor beads are brought close together.)
Series [8] addresses T4, Oxysterols receptor LXR-beta (Homo sapiens) (UniProt P55055).
T4 sequence (whole entry): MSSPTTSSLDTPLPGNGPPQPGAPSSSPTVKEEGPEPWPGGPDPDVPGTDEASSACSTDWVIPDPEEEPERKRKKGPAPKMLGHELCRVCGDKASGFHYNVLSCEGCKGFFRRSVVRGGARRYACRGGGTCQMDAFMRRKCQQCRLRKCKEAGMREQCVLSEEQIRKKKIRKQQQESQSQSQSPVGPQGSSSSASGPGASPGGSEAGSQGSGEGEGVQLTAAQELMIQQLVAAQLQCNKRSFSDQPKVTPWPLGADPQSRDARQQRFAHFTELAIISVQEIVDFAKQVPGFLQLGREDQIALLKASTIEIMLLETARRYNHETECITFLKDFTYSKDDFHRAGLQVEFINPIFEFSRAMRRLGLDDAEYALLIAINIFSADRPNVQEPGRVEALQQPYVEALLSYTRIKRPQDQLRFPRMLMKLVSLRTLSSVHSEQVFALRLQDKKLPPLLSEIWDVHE
The series is described as follows: Agonist activity at human LXRbeta transfected in HepG2 at 10 uM by luciferase reporter assay. It counts as cell-based.

The target of series [9] is T1, Bile acid receptor (Homo sapiens). Nature of the series: Antagonist activity at human FXR in HepG2 cells assessed as reversal of CDCA-induced increase in SHP mRNA expression level at 0.1 to 1 uM dosed after 24 hrs starvation followed by CDCA addition and measured after 18 hrs by RT-PCR analysis.
Series [10] shares this target. The series is described as follows: Antagonist activity at human FXR transfected in HepG2 cells assessed as inhibition of CDCA-induced receptor transactivation at 10 uM by luciferase reporter assay relative to control. It counts as cell-based. Details: scale not given: the % may be the effect or the level left.
In series [11] the target is T2, Oxysterols receptor LXR-alpha (Homo sapiens). The series is described as follows: Agonist activity at human LXRalpha transfected in HepG2 at 10 uM by luciferase reporter assay. It counts as cell-based.
Series [12] can be described thus: Aqueous solubility of compound in pH 7.4 PBS buffer incubated for 24 hrs under gently shaking condition by LC-MS/MS analysis. It is filed as physicochemical.
A further series deals with T5, Bile acid receptor (Homo sapiens, UniProt Q96RI1).
T5 sequence (Q96RI1 whole entry): T1 sequence (whole entry)
The series is described as follows: Antagonist activity at human FXR transfected in HepG2 cells assessed as inhibition of CDCA-induced receptor transactivation by luciferase reporter assay. It is filed as cell-based.

In series [13] the target is T4, Oxysterols receptor LXR-beta (Homo sapiens). The series is described as follows: Antagonist activity at human LXRbeta transfected in HepG2 at 5 uM in presence of LXRbeta agonist GW3965 by luciferase reporter assay. It is filed as cell-based.

For orientation: share remaining means what is left of the initial amount, in per cent. Usually logD stands for lipophilicity at a set pH, counting ionised and neutral species. As a reminder, the half-life is how long it takes for the measured level to halve. Broadly, the solubility is how much of the substance goes into solution per volume. What is called IC50 is the concentration that gives 50% inhibition. Take `c1ccc2cc(-c3noc(C4CCNCC4)n3)ccc2c1`: the result in series [1] and in series [9] was Active. In addition, the result in [2], in [8], in series [11] and in series [13] was inactive. Further, the fraction remaining at 40 min, 1 µM in series [3] is 76.2%. This compound also displayed a logD in [4] of 0.34. The Activity result in series [5] is “Not Active”; in [10] it was 80%. In series [6], this compound had a half-life at 1 µM of 1.86 h. Further, the inhibition result in series [7] is “Active”. Besides, the concentration in solution in series [12] (solubility at 24 h) came to 200 µM (≈ 55.9 µg/mL). For the same compound, on Bile acid receptor, the IC50 was determined as 580 nM.
